US7659404B2, “Broad spectrum 2-(substituted-amino)-benzothiazole sulfonamide HIV protease inhibitors” (Tibotec Pharmaceuticals Ltd., priority 2001, dated 2010)
Where two headings read alike, the source gives them in different places.

What was measured:
[1] = system: clinically isolated HIV strain O; assay type: cell-based; conditions: FR=EC50(mutant strain)/EC50(HIV-1 strain LAI)
Procedure, shortened: (§1)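 MT4 cells, HIV or mock infection, 5 d with compound dilutions; MTT readout, formazan in isopropanol, A540. EC50/EC90 = conc. protecting 50/90% of cells from CPE; CC50 from mock-infected cells. FR = EC50 mutant/EC50 LAI.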

[2] = system: clinically isolated HIV strain I; assay type: cell-based; conditions: FR=EC50(mutant strain)/EC50(HIV-1 strain LAI)
Procedure, shortened: as §1

[3] = system: clinically isolated HIV strain J; assay type: cell-based; conditions: FR=EC50(mutant strain)/EC50(HIV-1 strain LAI)
Procedure, shortened: as §1

[4] = system: clinically isolated HIV strain H; assay type: cell-based; conditions: FR=EC50(mutant strain)/EC50(HIV-1 strain LAI)
Procedure, shortened: as §1

[5] = system: clinically isolated HIV strain T; assay type: cell-based; conditions: FR=EC50(mutant strain)/EC50(HIV-1 strain LAI)
Procedure, shortened: as §1

[6] = system: HIV-1 strain LAI; assay: Cellular anti-HIV assay in MT4 cells (MTT), wild type laboratory strain; assay type: cell-based; conditions: read-out: EC50 value against HIV-1 strain LAI
Experimental: The compounds of the present invention were examined for anti-viral activity in a cellular assay. […] The cellular assay was performed according to the following procedure.
Cellular Assay Experimental Method:
HIV- or mock-infected MT4 cells were incubated for five days in the presence of various concentrations of the inhibitor. At the end of the incubation period, all HIV-infected cells have been killed by the replicating virus in the control cultures in the absence of any inhibitor. Cell viability is measured by measuring the concentration of MTT, a yellow, water soluble tetrazolium dye that is converted to a purple, water insoluble formazan in the mitochondria of living cells only. Upon solubilization of the resulting formazan crystals with isopropanol, the absorbance of the solution is monitored at 540 nm. The values correlate directly to the number of living cells remaining in the culture at the completion of the five day incubation. The inhibitory activity of the compound was monitored on the virus-infected cells and was expressed as EC50 and EC90. These values represent the amount of the compound required to protect 50% and 90%, respectively, of the cells from the cytopathogenic effect of the virus. The toxicity of the compound was measured on the mock-infected cells and was expressed as CC50, which represents the concentration of compound required to inhibit the growth of the cells by 50%. The selectivity index (SI) (ratio CC50/EC50) is an indication of the selectivity of the anti-HIV activity of the inhibitor.

[7] = system: virus strain F (R13025); assay: microbe, parasite or virus in culture; assay type: cell-based, HIV; conditions: FR=EC50(mutant strain)/EC50(HIV-1 strain LAI); strain F
Procedure, shortened: as §1

[8] = system: virus strain S (R13080); assay: microbe, parasite or virus in culture; assay type: cell-based, HIV; conditions: FR=EC50(mutant strain)/EC50(HIV-1 strain LAI); strain S
Procedure, shortened: as §1

[9] = Human immunodeficiency virus 1, 120 h, MT4 cells, five days, MTT
[10] = Human immunodeficiency virus 1, MT4, 120 h

| SMILES | fold resistance (FR), strain O [1] | fold resistance (FR), strain I [2] | fold resistance (FR), strain J [3] | fold resistance (FR), strain H [4] | fold resistance (FR), strain T [5] | EC50 [6, 9] | fold resistance (FR), strain F [7] | fold resistance (FR), strain S [8] | EC50 [6, 10] |
| --- | --- | --- | --- | --- | --- | --- | --- | --- | --- |
| CC(C)CN(C[C@@H](O)[C@H](Cc1ccccc1)NC(=O)OC1COC2OCCC12)S(=O)(=O)c1ccc2nc(NCCN(C)C)sc2c1 (mixture of isomers) [Compound 4] | 0.5 | 1.2 | 0.5 | 1.9 | 48.8 | < 50 nM | 2.2 | 2.9 |  |
| CC(=O)N(CCN1CCCC1)c1nc2ccc(S(=O)(=O)N(CC(C)C)CC(O)C(Cc3ccccc3)NC(=O)OC3COC4OCCC34)cc2s1 (stereo not shown) [Compound 19] | 0.5 | 1.1 | 0.6 | 2.1 | 10.5 | < 50 nM | 2.4 | 2.2 |  |
| CC(=O)Nc1nc2ccc(S(=O)(=O)N(CCNc3ccccn3)CC(O)C(Cc3ccccc3)NC(=O)OC3COC4OCCC34)cc2s1 (stereo not shown) [Compound 29] |  |  |  |  |  |  |  |  | 50 to 500 nM |
| CC(=O)N(C)c1nc2ccc(S(=O)(=O)N(Cc3ccccn3)CC(O)C(Cc3ccccc3)NC(=O)OCc3c(C)cccc3C)cc2s1 (stereo not shown) [Compound 31] |  |  |  |  |  |  |  |  | > 500 nM |
| Cc1cc(Br)ccc1C(=O)N[C@@H](Cc1ccccc1)[C@H](O)CN(CC(C)C)S(=O)(=O)c1ccc2nc(NC(=O)CN3CCCC3)sc2c1 [Compound 70] | 3.2 | 3.7 | 3.3 | 3.1 | 145.1 |  | 4.7 | 10.4 |  |
| CC(=O)N(CCN1CCCC1)c1nc2ccc(S(=O)(=O)N(CC(C)C)C[C@@H](O)[C@H](Cc3ccccc3)NC(=O)OCc3cccnc3)cc2s1 [Compound 71] | 5.0 | 2.2 | 7.0 | 2.7 | 321.5 |  | 29.6 | 79.6 |  |
| CC(=O)Nc1nc2ccc(S(=O)(=O)N(CC(C)C)C[C@@H](O)[C@H](Cc3ccccc3)NC(=O)c3cc([N+](=O)[O-])ccc3C)cc2s1 [Compound 72] | 24.4 | 26.2 | 11.4 | 24.9 | 641.1 |  | 67.0 | 118.0 |  |
| CC(=O)Nc1nc2ccc(S(=O)(=O)N(CC(C)C)C[C@@H](O)[C@H](Cc3ccccc3)NC(=O)c3cc(N)ccc3C)cc2s1 [Compound 73] | 20.7 | 12.1 | 14.1 | 9.8 | 966.6 |  | 43.1 | 966.6 |  |
| Cc1cc(C#N)cc(C)c1OCC(=O)N[C@@H](Cc1ccccc1)[C@H](O)CN(CC(C)C)S(=O)(=O)c1ccc2nc(NC(=O)CN3CCCC3)sc2c1 [Compound 75] | 18.7 | 7.4 | 19.4 | 3.6 | 93.6 |  | 16.3 | 19.0 |  |
| CC(=O)N(C)c1nc2ccc(S(=O)(=O)N(CC(C)C)C[C@@H](O)[C@H](Cc3ccccc3)NC(=O)COc3c(C)cccc3C)cc2s1 [Compound 77] | 11.7 | 8.3 | 11.0 | 2.2 | 144.7 |  | 8.9 | 11.6 |  |
| CC(=O)N(CCN1CCCC1)c1nc2ccc(S(=O)(=O)N(CC(C)C)C[C@@H](O)[C@H](Cc3ccccc3)NC(=O)COc3c(C)cccc3C)cc2s1 [Compound 78] | 8.9 | 3.9 | 2.9 | 2.6 | 60.5 |  | 4.8 | 12.1 |  |
| CC(=O)N(C)c1nc2ccc(S(=O)(=O)N(CC(C)C)C[C@@H](O)[C@H](Cc3ccccc3)NC(=O)O[C@H]3CCOC3)cc2s1 [Compound 79] | 7.4 | 3.9 | 9.8 | 12.1 | 893.1 |  | 113.0 | 313.0 |  |
| CC(=O)N(C)c1nc2ccc(S(=O)(=O)N(CC(C)C)C[C@@H](O)[C@H](Cc3ccccc3)NC(=O)OCc3cncs3)cc2s1 [Compound 80] | 8.1 | 3.9 | 17.6 | 5.7 | 457.6 |  | 17.4 | 26.6 |  |
| CC(=O)N(C)c1nc2ccc(S(=O)(=O)N(CC(C)C)C[C@@H](O)[C@H](Cc3ccccc3)NC(=O)OCc3cccnc3)cc2s1 [Compound 81] | 20.4 | 6.1 | 29.6 | 5.6 | 387.6 |  | 106.8 | 121.0 |  |
| CC(=O)N(C)c1nc2ccc(S(=O)(=O)N(CC(C)C)C[C@@H](O)[C@H](Cc3ccccc3)NC(=O)c3cccc(N)c3C)cc2s1 [Compound 82] | 8.0 | 4.4 | 5.5 | 5.0 | 214.1 |  | 13.8 | 17.9 |  |
| CC(=O)N(C)c1nc2ccc(S(=O)(=O)N(CC(C)C)C[C@@H](O)[C@H](Cc3ccccc3)NC(=O)c3cccc(O)c3C)cc2s1 [Compound 83] | 1.5 | 7.4 | 8.4 | 4.6 | 438.6 |  | 106.6 | 132.1 |  |
| CC(=O)Nc1nc2ccc(S(=O)(=O)N(CC(C)C)C[C@@H](O)[C@H](Cc3ccccc3)NC(=O)Cc3cc(C)no3)cc2s1 [Compound 84] | 6.1 | 13.0 | 19.6 | 11.7 | 195.4 |  | 54.3 | 195.4 |  |
| CCN1CCCC1CNc1nc2ccc(S(=O)(=O)N(CC(C)C)C[C@@H](O)[C@H](Cc3ccccc3)NC(=O)O[C@H]3CO[C@H]4OCC[C@H]43)cc2s1 (stereo partly shown) [Compound 93] |  |  |  |  |  | < 50 nM | 1.1 | 4.68 |  |
